Experimental data reported in the supplement of paper PMC10307832.

Tests used:
Test in all cases: relative viability (nuclei count vs DMSO), 5 days (fraction); higher = more cells survive
NCI-H727 = tested on: NCI-H727
Procedure, shortened: (§1)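 Lung cancer cell lines were pin-tool dosed in 1536-well plates on the day after seeding, with either a lone drug or a fixed anchor-drug dose plus five library-drug doses (not always all listed) in √10 steps. Nuclei were counted on 4× images after 5 days. Relative viability is the ratio of treated-well to vehicle-well nuclei counts, with each value a median of duplicate plates.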

NCI-H3122 = tested on: NCI-H3122
Procedure, shortened: as §1

SW 900 = tested on: SW 900
Procedure, shortened: as §1

LOU-NH91 = tested on: LOU-NH91
Procedure, shortened: as §1

LK-2 = tested on: LK-2
Procedure, shortened: as §1

EKVX = tested on: EKVX
Procedure, shortened: as §1

CAL-12T = tested on: CAL-12T
Procedure, shortened: as §1

HCC-366 = tested on: HCC-366
Procedure, shortened: as §1

NCI-H441 = tested on: NCI-H441
Procedure, shortened: as §1

NCI-H2170 = tested on: NCI-H2170
Procedure, shortened: as §1

NCI-H1437 = tested on: NCI-H1437
Procedure, shortened: as §1

HARA = tested on: HARA
Procedure, shortened: as §1

ABC-1 = tested on: ABC-1
Procedure, shortened: as §1

BEN = tested on: BEN
Procedure, shortened: as §1

NCI-H2009 = tested on: NCI-H2009
Procedure, shortened: as §1

NCI-H661 = tested on: NCI-H661
Procedure, shortened: as §1

PC-14 = tested on: PC-14
Procedure, shortened: as §1

COR-L 105 = tested on: COR-L 105
Procedure, shortened: as §1

NCI-H1666 = tested on: NCI-H1666
Procedure, shortened: as §1

NCI-H460 = tested on: NCI-H460
Procedure, shortened: as §1

NCI-H1650 = tested on: NCI-H1650
Procedure, shortened: as §1

201T = tested on: 201T
Procedure, shortened: as §1

SMILES: Nc1ccn([C@@H]2O[C@H](CO)[C@@H](O)[C@@H]2O)c(=O)n1 [Cytarabine] + O=C(c1cc(Cc2n[nH]c(=O)c3ccccc23)ccc1F)N1CCN(C(=O)C2CC2)CC1 [Olaparib] (partner 8 µM)
- relative viability (NCI-H727; first compound 0.005 µM): 0.659
- relative viability (NCI-H727; first compound 0.01581 µM): 0.541
- relative viability (NCI-H727; first compound 0.05 µM): 0.679
- relative viability (NCI-H727; first compound 0.1581 µM): 0.542
- relative viability (NCI-H727; first compound 0.5 µM): 0.566
- relative viability (NCI-H3122; first compound 0.005 µM): 0.545
- relative viability (NCI-H3122; first compound 0.01581 µM): 0.658
- relative viability (NCI-H3122; first compound 0.05 µM): 0.585
- relative viability (NCI-H3122; first compound 0.1581 µM): 0.389
- relative viability (NCI-H3122; first compound 0.5 µM): 0.304
- relative viability (SW 900; first compound 0.005 µM): 0.899
- relative viability (SW 900; first compound 0.01581 µM): 0.797
- relative viability (SW 900; first compound 0.05 µM): 0.413
- relative viability (SW 900; first compound 0.1581 µM): 0.242
- relative viability (SW 900; first compound 0.5 µM): 0.296
- relative viability (LOU-NH91; first compound 0.005 µM): 0.89
- relative viability (LOU-NH91; first compound 0.01581 µM): 0.905
- relative viability (LOU-NH91; first compound 0.05 µM): 0.833
- relative viability (LOU-NH91; first compound 0.1581 µM): 0.676
- relative viability (LOU-NH91; first compound 0.5 µM): 0.625
- relative viability (LK-2; first compound 0.005 µM): 0.659
- relative viability (LK-2; first compound 0.01581 µM): 0.5
- relative viability (LK-2; first compound 0.05 µM): 0.316
- relative viability (LK-2; first compound 0.1581 µM): 0.164
- relative viability (LK-2; first compound 0.5 µM): 0.148
- relative viability (EKVX; first compound 0.005 µM): 0.819
- relative viability (EKVX; first compound 0.01581 µM): 0.665
- relative viability (EKVX; first compound 0.05 µM): 0.695
- relative viability (EKVX; first compound 0.5 µM): 0.234
- relative viability (CAL-12T; first compound 0.005 µM): 0.859
- relative viability (CAL-12T; first compound 0.01581 µM): 0.68
- relative viability (CAL-12T; first compound 0.05 µM): 0.537
- relative viability (CAL-12T; first compound 0.1581 µM): 0.288
- relative viability (CAL-12T; first compound 0.5 µM): 0.223
- relative viability (HCC-366; first compound 0.005 µM): 0.316
- relative viability (HCC-366; first compound 0.01581 µM): 0.362
- relative viability (HCC-366; first compound 0.05 µM): 0.32
- relative viability (HCC-366; first compound 0.1581 µM): 0.136
- relative viability (HCC-366; first compound 0.5 µM): 0.0939
- relative viability (NCI-H441; first compound 0.005 µM): 0.451
- relative viability (NCI-H441; first compound 0.01581 µM): 0.48
- relative viability (NCI-H441; first compound 0.05 µM): 0.375
- relative viability (NCI-H441; first compound 0.1581 µM): 0.354
- relative viability (NCI-H441; first compound 0.5 µM): 0.175
- relative viability (NCI-H2170; first compound 0.005 µM): 0.544
- relative viability (NCI-H2170; first compound 0.01581 µM): 0.47
- relative viability (NCI-H2170; first compound 0.05 µM): 0.408
- relative viability (NCI-H2170; first compound 0.1581 µM): 0.265
- relative viability (NCI-H2170; first compound 0.5 µM): 0.23
- relative viability (NCI-H1437; first compound 0.005 µM): 0.529
- relative viability (NCI-H1437; first compound 0.01581 µM): 0.51
- relative viability (NCI-H1437; first compound 0.05 µM): 0.469
- relative viability (NCI-H1437; first compound 0.1581 µM): 0.283
- relative viability (NCI-H1437; first compound 0.5 µM): 0.234
- relative viability (HARA; first compound 0.005 µM): 0.928
- relative viability (HARA; first compound 0.01581 µM): 0.413
- relative viability (HARA; first compound 0.05 µM): 0.487
- relative viability (HARA; first compound 0.1581 µM): 0.179
- relative viability (HARA; first compound 0.5 µM): 0.162
- relative viability (ABC-1; first compound 0.005 µM): 0.7
- relative viability (ABC-1; first compound 0.01581 µM): 0.756
- relative viability (ABC-1; first compound 0.05 µM): 0.991
- relative viability (ABC-1; first compound 0.1581 µM): 0.672
- relative viability (ABC-1; first compound 0.5 µM): 0.61
- relative viability (BEN; first compound 0.005 µM): 0.822
- relative viability (BEN; first compound 0.01581 µM): 0.703
- relative viability (BEN; first compound 0.05 µM): 0.637
- relative viability (BEN; first compound 0.1581 µM): 0.447
- relative viability (BEN; first compound 0.5 µM): 0.384
- relative viability (NCI-H2009; first compound 0.005 µM): 0.744
- relative viability (NCI-H2009; first compound 0.01581 µM): 0.752
- relative viability (NCI-H2009; first compound 0.05 µM): 0.724
- relative viability (NCI-H2009; first compound 0.1581 µM): 0.644
- relative viability (NCI-H2009; first compound 0.5 µM): 0.202
- relative viability (NCI-H661; first compound 0.005 µM): 0.677
- relative viability (NCI-H661; first compound 0.01581 µM): 0.773
- relative viability (NCI-H661; first compound 0.05 µM): 0.646
- relative viability (NCI-H661; first compound 0.1581 µM): 0.518
- relative viability (NCI-H661; first compound 0.5 µM): 0.398
- relative viability (PC-14; first compound 0.005 µM): 0.227
- relative viability (PC-14; first compound 0.01581 µM): 0.252
- relative viability (PC-14; first compound 0.05 µM): 0.241
- relative viability (PC-14; first compound 0.1581 µM): 0.105
- relative viability (PC-14; first compound 0.5 µM): 0.0848
- relative viability (COR-L 105; first compound 0.005 µM): 0.841
- relative viability (COR-L 105; first compound 0.01581 µM): 0.791
- relative viability (COR-L 105; first compound 0.05 µM): 0.417
- relative viability (COR-L 105; first compound 0.1581 µM): 0.469
- relative viability (COR-L 105; first compound 0.5 µM): 0.358
- relative viability (NCI-H1666; first compound 0.005 µM): 0.675
- relative viability (NCI-H1666; first compound 0.01581 µM): 0.754
- relative viability (NCI-H1666; first compound 0.05 µM): 0.694
- relative viability (NCI-H1666; first compound 0.1581 µM): 0.613
- relative viability (NCI-H1666; first compound 0.5 µM): 0.684
- relative viability (NCI-H460; first compound 0.005 µM): 0.355
- relative viability (NCI-H460; first compound 0.01581 µM): 0.367
- relative viability (NCI-H460; first compound 0.05 µM): 0.237
- relative viability (NCI-H460; first compound 0.1581 µM): 0.0662
- relative viability (NCI-H460; first compound 0.5 µM): 0.0537
- relative viability (NCI-H1650; first compound 0.005 µM): 0.638
- relative viability (NCI-H1650; first compound 0.01581 µM): 0.772
- relative viability (NCI-H1650; first compound 0.05 µM): 0.472
- relative viability (NCI-H1650; first compound 0.1581 µM): 0.268
- relative viability (NCI-H1650; first compound 0.5 µM): 0.168
- relative viability (201T; first compound 0.005 µM): 0.832
- relative viability (201T; first compound 0.01581 µM): 0.877
- relative viability (201T; first compound 0.05 µM): 0.914
- relative viability (201T; first compound 0.1581 µM): 0.847
- relative viability (201T; first compound 0.5 µM): 0.827
